# Source: patent EP0240717A2, “Prevention of mammary carcinoma” (The Board of Regents of the University of Nebraska, priority 1986, dated 1987)
# What was measured:
# breast carcinoma = conditions: cited from earlier work; for percent of the rats developed cancer in 7 months / percent of the rats developed cancer in one year: rats treated with drug and a carcinogen; for percent of the rats developed cancer in 7 months: incidence at 7 months; for percent of the rats developed cancer in one year: incidence at one year; for lifetime effect in reducing the appearance of breast carcinoma: treated rats compared to other rats receiving carcinogen at the same time
# [1] = in animals; cited from earlier work
# mammary carcinoma = assay: Anti-mammary carcinogenic activity in female rats fed DMBA, hormone given by pellet or minipump; assay type: in vivo, Sprague-Dawley rats; conditions: doses that do not have undesirable side effects
# Description: In tests for anti-mammary carcinogenic activity following the feeding of carcinogen to mammals, ten different estrogenic compounds were implanted in female rats fed a carcinogen. The incidence of breast cancer for each compound was determined. Rats receiving only the carcinogen were used as controls. Ethynyl estriol was obtained from Eli Lilly, Inc., Greenfield, Indiana; the other estrogens were obtained from Sigma, Inc., St. Louis, Missouri, or Steraloids, Inc., Wilton, New Hampshire.
# In all of the tests, intact female Sprague-Dawley rats, obtained from Sasco, Inc., Omaha, Nebraska, at 50 to 55 days of age were used.
# They were: (1) randomized upon receipt; (2) housed individually in suspended cages; (3) fed Purina Lab Chow and distilled water; and (4) the temperature was maintained within 22-23 degrees and 40-50 percent relative humidity. […]
# Rats free of neoplasms were followed for one year. […] Significant differences in cancer incidence between treated and controlled groups were determined.
# The differences in cancer incidence between treated and controlled groups in each experiment were determined by X2 using the Yate's correction. […] The significance of difference in mammary-carcinoma-free survival in rate-days was determined for these groups at 210 days after DMBA administration using the Mann-Whitney U Test. […]
# [2] = in vitro by tissues; cited from earlier work
# [3] = test system: breast cancers induced by a carcinogenic chemical; conditions: cited from earlier work
SMILES,percent of the rats developed cancer in 7 months (breast carcinoma),percent of the rats developed cancer in one year (breast carcinoma),further results
"C[C@]12CC[C@@H]3c4ccc(O)cc4C(=O)C[C@H]3[C@@H]1CC[C@@H]2O [6 keto estradiol, 6-keto estradiol 17 beta]",31%,61%,lifetime effect in reducing the appearance of breast carcinoma (breast carcinoma): 30-50%
C#C[C@]1(O)CC[C@H]2[C@@H]3CCc4cc(O)ccc4[C@H]3[C@@H](OC)C[C@@]21C [11 beta methoxy 17 alpha ethynyl estradiol 17 beta],–,–,carcinogenicity [1]: carcinogenic in animals
C#C[C@]1(O)[C@H](O)C[C@H]2[C@@H]3CCc4cc(O)ccc4[C@H]3CC[C@@]21C [17 alpha ethynyl estriol],–,–,risk of mammary carcinoma (mammary carcinoma): reduce the risk of mammary carcinoma
COc1ccc2c(c1)CC[C@@H]1[C@@H]2CC[C@]2(C)[C@@H](O)[C@H](O)C[C@@H]12 [estriol 3-methyl ether],–,–,lifetime effect in reducing the appearance of breast carcinoma (breast carcinoma): 30-50%
CC/C(=C(\c1ccccc1)c1ccc(OCCN(C)C)cc1)c1ccccc1 [tamoxifen],78%,89%,–
C[C@]12CCc3c(ccc4cc(O)ccc34)[C@@H]1CCC2=O [d-equilenin],–,–,position of oxidation [2]: almost exclusively at the C4 (R1) position
C[C@]12CC[C@@H]3c4ccc(O)cc4CC[C@H]3[C@@H]1C[C@@H](O)[C@@H]2O [estriol],26%,63%,inhibiting the development of breast cancers [3]: moderately effective
C#C[C@]1(O)CC[C@H]2[C@@H]3CCc4cc(O)ccc4[C@H]3CC[C@@]21C [17 alpha ethynyl estradiol 17 beta],90%,100%,–
C[C@]12CC[C@@H]3c4cc(O)c(O)cc4CC[C@H]3[C@@H]1CC[C@@H]2O [2-OH estradiol 17 beta],78%,94%,–
CC/C(=C(/CC)c1ccc(O)cc1)c1ccc(O)cc1 [diethylstilbestrol],88%,100%,–
